Assay results published in ChEMBL document CHEMBL1201862, “PubChem BioAssay data set” (2004).
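A five-concentration, 48-hour dose response in 96-well plates underlies each endpoint, interpolated linearly between surrounding concentrations. At the GI50, growth is halved.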 Activity calls are given as the source filed them. Rule as the data show it: active = GI50 up to about 1.1 µM and inactive = higher.

Tests used:
Assay in all cases: NCI tumour cell line growth inhibition, 48 h
OVCAR-4 = tested on: OVCAR-4
Hs-578T = tested on: Hs-578T
SF-268 = tested on: SF-268
MDA-MB-435 = tested on: MDA-MB-435
EKVX = tested on: EKVX
NCI-H226 = tested on: NCI-H226
OVCAR-5 = tested on: OVCAR-5
SW-620 = tested on: SW-620
RXF 393 = tested on: RXF 393
HCC 2998 = tested on: HCC 2998
NCI-H23 = tested on: NCI-H23
HOP-92 = tested on: HOP-92
OVCAR-8 = tested on: OVCAR-8
RPMI-8226 = tested on: RPMI-8226
MOLT-4 = tested on: MOLT-4
UACC-257 = tested on: UACC-257
ACHN = tested on: ACHN
SK-MEL-2 = tested on: SK-MEL-2
HL-60 = tested on: HL-60
A498 = tested on: A498

Measured: GI50

O=[N+]([O-])c1cccnc1NCC1(CO)CC(Cc2ccccc2)C1 (stereo not given)
inactive: OVCAR-4 > 100 µM | Hs-578T > 100 µM | SF-268 > 100 µM | MDA-MB-435 > 100 µM | EKVX 77.6 µM | NCI-H226 80.4 µM | OVCAR-5 > 100 µM | SW-620 > 100 µM | RXF 393 > 100 µM | HCC 2998 > 100 µM | NCI-H23 > 100 µM | HOP-92 11.1 µM | OVCAR-8 > 100 µM | RPMI-8226 99.8 µM | MOLT-4 > 100 µM | UACC-257 > 100 µM | ACHN > 100 µM | SK-MEL-2 > 100 µM | HL-60 > 100 µM | A498 > 100 µM

CC1=C(C)C2(C#N)C(=O)N3C(=NC(c4ccco4)NC3c3ccco3)C2(C#N)C(c2ccco2)N1 (stereo not given)
inactive: OVCAR-4 > 100 µM | Hs-578T > 100 µM | SF-268 > 100 µM | MDA-MB-435 > 100 µM | EKVX > 100 µM | NCI-H226 > 100 µM | OVCAR-5 > 100 µM | SW-620 > 100 µM | RXF 393 > 100 µM | HCC 2998 > 100 µM | NCI-H23 > 100 µM | HOP-92 > 100 µM | OVCAR-8 > 100 µM | RPMI-8226 > 100 µM | MOLT-4 > 100 µM | UACC-257 > 100 µM | ACHN > 100 µM | SK-MEL-2 > 100 µM | HL-60 > 100 µM | A498 > 100 µM

CCOC(=O)C(NC(=O)c1ccccc1)(Nc1ccc(Cl)cc1C(F)(F)F)C(F)(F)F (stereo not given)
inactive: OVCAR-4 9.77 µM | Hs-578T 39.3 µM | SF-268 > 37.4 µM | MDA-MB-435 1.26 µM | EKVX 5.6 µM | NCI-H226 16.7 µM | OVCAR-5 13.5 µM | SW-620 2.88 µM | RXF 393 3.44 µM | HCC 2998 > 28.3 µM | NCI-H23 4.59 µM | HOP-92 4.99 µM | OVCAR-8 5.36 µM | RPMI-8226 2.96 µM | MOLT-4 2.55 µM | UACC-257 9.64 µM | ACHN 9.42 µM | SK-MEL-2 4.74 µM | HL-60 1.98 µM | A498 6.05 µM
